Source: patent publication US7214708B2, “Synthetic discodermolide analogs” (priority 2004, dated 2007)

Key:
CCRF-CEM/VBL = test: inhibition of proliferation of tumor cell line CCRF-CEM/VBL; type: cell-based, human; details: CCRF-CEM subline resistant to vinblastine, some results are the average of multiple runs
Experimental: (§1) The biological activities of compounds I were evaluated by measuring their inhibitory effect on the proliferation of various tumor cell lines. MCF-7, A549, SKOV-3, and CCRF-CEM are human breast cancer, lung cancer, ovary cancer, and leukemia cell lines, respectively. HL-60/MX2 is a leukemia cell line resistant to mitoxantrone. A549 t12 is an A549 subline resistant to paclitaxel. CCRF-CEM/PTX, CCRF-CEM/VBL, and CCRF-CEM/VP16 are CCRF-CEM sublines resistant to paclitaxel, vinblastine, and VP-16 (etoposide), respectively. NCI/ADR (also referred to as NCI/ADR-Res) is a multi-drug resistant human breast cancer cell line.
(§2) The biological activity of compound II-A was evaluated by measuring its inhibitory effect on the proliferation of various tumor cell lines. (The characteristics of the various cell lines employed was previously described hereinabove.)
(§3) The biological activity of compounds IV was evaluated by measuring their inhibitory effect on the proliferation of various tumor cell lines. The characteristics of the cell lines used has been discussed hereinabove.

HL-60/MX2 = test: inhibition of proliferation of tumor cell line HL-60/MX2; type: cell-based; details: HL-60/MX2 leukemia cell line resistant to mitoxantrone, some results are the average of multiple runs
Experimental: as §1, §2, §3

MCF-7 = test: inhibition of proliferation of tumor cell line MCF-7; type: cell-based; details: MCF-7 human breast cancer cell line, some results are the average of multiple runs
Experimental: as §1, §2
(§4) The biological activity of compounds III was evaluated by measuring their inhibitory effect on the proliferation of various tumor cell lines. The characteristics of the cells lines used has been described hereinabove.
as §3

CCRF-CEM = test: inhibition of proliferation of tumor cell line CCRF-CEM; type: cell-based; details: CCRF-CEM human leukemia cell line; some results are the average of multiple runs
Experimental: as §1, §2, §3

CCFR-CEM/VP16 = test: inhibition of proliferation of tumor cell line CCRF-CEM/VP16; type: cell-based, human; details: CCRF-CEM subline resistant to VP-16 (etoposide), some results are the average of multiple runs
Experimental: as §1, §2, §3

NCI/ADR = test: inhibition of proliferation of tumor cell line NCI/ADR; type: cell-based; details: NCI/ADR (NCI/ADR-Res) multi-drug resistant human breast cancer cell line; some results are the average of multiple runs
Experimental: as §1, §2, §4, §3

A549 = test: inhibition of proliferation of tumor cell line A549; type: cell-based; details: A549 human lung cancer cell line; some results are the average of multiple runs
Experimental: as §1, §2, §4, §3

A549 t12 = test: inhibition of proliferation of tumor cell line A549 t12; type: cell-based, human; details: A549 t12, A549 subline resistant to paclitaxel, some results are the average of multiple runs
Experimental: as §1, §2, §3

CCRF-CEM/PTX = test: inhibition of proliferation of tumor cell line CCRF-CEM/PTX; type: cell-based, human; details: CCRF-CEM subline resistant to paclitaxel, some results are the average of multiple runs
Experimental: as §1, §2, §3

SKOV-3 = test: inhibition of proliferation of tumor cell line SKOV-3; type: cell-based; details: SKOV-3 human ovary cancer cell line, some results are the average of multiple runs
Experimental: as §1, §2, §4

Compound	IC50 (CCRF-CEM/VBL; Homo sapiens) [nM]	IC50 (HL-60/MX2; Homo sapiens, HL60/MX2) [nM]	IC50 (MCF-7; MCF7) [nM]	IC50 (CCRF-CEM) [nM]	IC50 (CCFR-CEM/VP16; Homo sapiens) [nM]	IC50 (NCI/ADR) [nM]	IC50 (A549) [nM]	IC50 (A549 t12; Homo sapiens) [nM]	IC50 (CCRF-CEM/PTX; Homo sapiens) [nM]	IC50 (CCRF-CEM/VBL) [nM]	IC50 (HL-60/MX2) [nM]	IC50 (MCF-7) [nM]	IC50 (SKOV-3) [nM]	IC50 (CCFR-CEM/VP16) [nM]	IC50 (A549 t12) [nM]	IC50 (CCRF-CEM/PTX) [nM]	IC50 (SKOV-3; SK-OV-3) [nM]
CC/C=C\[C@H](C)[C@H](OC(N)=O)[C@@H](C)[C@H](O)[C@@H](C)C/C(C)=C\[C@H](C)[C@@H](O)[C@@H](C)/C=C\[C@@H](O)C[C@@H]1OC(=O)[C@H](C)[C@@H](OC)[C@H]1C [IV-A]	209	12	5.8	8.6	12	140	11	50	65								
C=C/C=C\[C@H](C)[C@H](OC(N)=O)[C@@H](C)[C@H](O)[C@@H](C)C/C(C)=C\[C@H](C)[C@@H](O)[C@@H](C)/C=C\[C@H](C[C@@H]1OC(=O)[C@H](C)[C@@H](O)[C@H]1C)OCOCCOC [I-B]			5.5			140	6.7	5.8									
(+)-Discodermolide [reference compound]				14.8		247	24.4			158	150	14.1	31.7	53	26.7	92.8	
CC/C=C\[C@H](C)[C@H](OC(N)=O)[C@@H](C)[C@H](O)[C@@H](C)C/C(C)=C\[C@H](C)[C@@H](O)[C@@H](C)/C=C\[C@@H](O)C[C@H]1CCC(=O)O1 [III-B]			6.4			730	46										15
C=C/C=C\[C@H](C)[C@H](OC(N)=O)[C@@H](C)[C@H](O)[C@@H](C)C/C(C)=C\[C@H](C)[C@@H](O)[C@@H](C)/C=C\[C@@H](O)C[C@H]1CCC(=O)O1 [III-A]			2.9			350	4.9										14
C=C/C=C\[C@H](C)[C@H](OC(N)=O)[C@@H](C)[C@H](O)[C@@H](C)C/C(C)=C\[C@H](C)[C@@H](O)[C@@H](C)/C=C(/C)[C@@H](O)C[C@@H]1OC(=O)[C@H](C)[C@@H](O)[C@H]1C [II-A, 8-methyldiscodermolide]	152	11	7.7	5.6	9	610	12	31	42.3								29
CC/C=C\[C@H](C)[C@H](OC(N)=O)[C@@H](C)[C@H](O)[C@@H](C)C/C(C)=C\[C@H](C)[C@@H](O)[C@@H](C)/C=C\[C@@H](O)C[C@@H]1OC(=O)[C@H](C)C[C@H]1C [IV-B]	416	4.1	3.8	4.4	8.4	250	6.5	12	79								
